From patent publication US7846950B2, “Histamine H3 receptor inhibitors, preparation and therapeutic uses” (Eli Lilly and Company, priority 2004, dated 2010) come the findings set out here.

The target of this experiment is T1, human histamine 3 receptor (Homo sapiens, UniProt Q9Y5N1).
T1 construct: expressed in transfected cells; membranes
Nature of the experiment: H3R binding assay (competitive inhibition SPA, [3H] alpha-methylhistamine, HEK293 H3R8 membranes). As to conditions: read-out: Human H3 Receptor Ki. An excerpt: The compounds of the present invention can readily be evaluated by using a competitive inhibition Scintillation Proximity Assay (SPA) based on a H3R binding assay using [3H] α methylhistamine as ligand. Stable cell lines, including but not limited to HEK can be transfected with cDNA coding for H3R to prepare membranes used for the binding assay. The technique is illustrated below (Preparation of Histamine Receptor Subtype Membranes) for the histamine receptor subtypes.
cDNA for the human histamine 1 receptor (H1R) was cloned into a mammalian expression vector containing the CMV promoter (pcDNA3.1(+), Invitogen) and transfected into HEK293 cells using the FuGENE Tranfection Reagent (Roche Diagnostics Corporation). Transfected cells were selected using G418 (500 μ/mL). Colonies that survived selection were grown and tested for histamine binding to cells grown in 96-well dishes using a scintillation proximity assay (SPA) based radioligand binding assay. Briefly, cells, representing individual selected clones, were grown as confluent monolayers in 96-well dishes (Costar Clear Bottom Plates, #3632) by seeding wells with 25,000 cells and growing for 48 hours (37° C., 5% CO2). […] Plates were counted in a Wallac Trilux 1450 Microbeta scintillation counter. […]
cDNA for the human histamine 3 receptor was cloned and expressed as described in (A. Preparation H1R membranes), above. […]

Molecules are shown by their SMILES.

T1 sequence (Q9Y5N1 whole entry): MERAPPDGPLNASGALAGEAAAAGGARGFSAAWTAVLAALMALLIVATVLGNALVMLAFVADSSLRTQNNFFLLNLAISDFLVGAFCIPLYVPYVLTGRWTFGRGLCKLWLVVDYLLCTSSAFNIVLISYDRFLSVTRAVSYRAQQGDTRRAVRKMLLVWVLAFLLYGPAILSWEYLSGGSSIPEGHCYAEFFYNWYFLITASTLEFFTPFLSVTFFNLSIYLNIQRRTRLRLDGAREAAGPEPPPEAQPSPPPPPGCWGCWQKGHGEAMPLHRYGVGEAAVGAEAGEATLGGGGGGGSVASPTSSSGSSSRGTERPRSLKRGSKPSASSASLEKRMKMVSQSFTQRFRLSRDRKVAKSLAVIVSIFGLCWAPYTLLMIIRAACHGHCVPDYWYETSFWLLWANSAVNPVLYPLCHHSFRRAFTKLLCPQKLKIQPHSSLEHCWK

Regarding `C[C@@H]1CCCN1C[C@@H]1CCCN1C(=O)c1ccc(OCc2ncon2)cc1F`, the Ki turned out to be 1.8 nM.
On to `O=C(c1ccc(OCc2ccco2)cc1)N1CCC[C@H]1CN1CCCC1`, for which the Ki came out at 6.2 nM.

A word on the Ki: it is the dissociation constant of the complex between target and ligand, obtained from inhibition or displacement.
